Experimental findings from PubChem BioAssay AID330 (DTP/NCI, 2004) are described below.

Molecules are shown by their SMILES. “And” between values parts separate entries of the source, which are not always exact repeats. Equal entries are not always repeated. Toxic doses and inconclusive results are not listed.

The subject of this assay is P388 leukemia ip, CD2F1 mice, survival T/C. The assay is described as follows: NCI In Vivo Anticancer Drug Screen. Data for tumor model P388 Leukemia (intraperitoneal) in CD2F1 (CDF1) mice. The settings on record: endpoint: median survival time, higher = longer survival. The procedure, abridged: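 Mice carrying the transplanted tumor received test compound or vehicle. Survival was recorded in each group, and the value is the treated-group measurement divided by that of the vehicle-treated control group.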

Where [1] appears, read: dose: 50.0 mg/kg/injection, schedule: Q01DX005 (ip), vehicle: saline with Tween-80.
[2] abbreviates: dose: 100.0 mg/kg/injection, schedule: Q01DX005 (ip), vehicle: saline with Tween-80.
[3] abbreviates: dose: 200.0 mg/kg/injection, schedule: Q01DX005 (ip), vehicle: saline with Tween-80.
[4] abbreviates: dose: 60.0 mg/kg/injection, schedule: Q01DX005 (ip), vehicle: saline with Tween-80.
Setting [5] is: dose: 120.0 mg/kg/injection, schedule: Q01DX005 (ip), vehicle: saline with Tween-80.
Where [6] appears, read: dose: 240.0 mg/kg/injection, schedule: Q01DX005 (ip), vehicle: saline with Tween-80.
Setting [7] is: dose: 12.5 mg/kg/injection, schedule: Q01DX009 (ip), vehicle: saline with Tween-80.
The mark [8] stands for this setting: dose: 25.0 mg/kg/injection, schedule: Q01DX009 (ip), vehicle: saline with Tween-80.
The mark [9] stands for this setting: dose: 50.0 mg/kg/injection, schedule: Q01DX009 (ip), vehicle: saline with Tween-80.
The mark [10] stands for this setting: dose: 100.0 mg/kg/injection, schedule: Q01DX009 (ip), vehicle: saline with Tween-80.
Where [11] appears, read: dose: 100.0 mg/kg/injection, schedule: Q01DX009 (ip), vehicle: saline.
The mark [12] stands for this setting: dose: 200.0 mg/kg/injection, schedule: Q01DX009 (ip), vehicle: saline.
Where [13] appears, read: dose: 50.0 mg/kg/injection, schedule: Q01DX005 (ip), vehicle: Klucel (hydroxypropylcellulose) (HPC).
Setting [14] is: dose: 25.0 mg/kg/injection, schedule: Q01DX009 (ip), vehicle: saline.
Where [15] appears, read: dose: 50.0 mg/kg/injection, schedule: Q01DX009 (ip), vehicle: saline.
The mark [16] stands for this setting: dose: 200.0 mg/kg/injection, schedule: Q01DX009 (ip), vehicle: saline with Tween-80.

As to `C/C1=C2N=C(/C=C3N=C(/C(C)=C4\[N-]C(C(CC(N)=O)C4(C)CCC(=O)NCC(C)OP(=O)(O)OC4C(CO)OC(n5cnc6cc(C)c(C)cc65)C4O)C4(C)N=C1C(CCC(N)=O)C4(C)CC(N)=O)C(CCC(N)=O)C\3(C)C)C(CCC(N)=O)C/2(C)CC(N)=O.[CH2-]CC.[Co+2]` (stereo unspecified), the T/C runs as follows: (dose: 76.1 micrograms/kg/injection, schedule: Q#A X Z (ip), vehicle: water) 88 % of control; (dose: 7610.0 micrograms/kg/injection, schedule: Q#A X Z (ip), vehicle: water) 99 % of control.
On to `COCCC(=O)SCc1ccccc1`, for which the T/C by setting is: under setting [1], 103 % of control; under setting [2], 96 % of control; under setting [3], 107 % of control.
As to `O=C1c2c(ccc3ccccc23)CN2CCCCC12` (stereo unspecified), the T/C is, setting by setting: under setting [4], 101 % of control; under setting [5], 103 % of control; under setting [6], 103 % of control.
For `CCN(CC)c1ccc(NCS(=O)(=O)O)cc1`, the T/C (dose: 50.0 mg/kg/injection, schedule: Q04DX003 (ip), vehicle: saline sonified) is 95 % of control; the T/C (dose: 100.0 mg/kg/injection, schedule: Q04DX003 (ip), vehicle: saline sonified) was 90 % of control; the T/C (dose: 200.0 mg/kg/injection, schedule: Q04DX003 (ip), vehicle: saline sonified) was 100 % of control.
With `O=C1NC(=O)C2CCCCC12` (stereo unspecified), the T/C reads like this: under setting [7], 109 % of control; under setting [8], 102 % of control; under setting [9], 100 % of control; under setting [10], 100 % of control.
For `Nc1c[nH]ccc1=O`, the T/C under setting [11] is 102 % of control; the T/C under setting [12] was 100 % of control; the T/C (dose: 400.0 mg/kg/injection, schedule: Q01DX009 (ip), vehicle: saline) was 99 % of control.
In the case of `CCC1(O)C(=O)OCc2c1cc(-c1ccc(Cl)cc1)nc2OC` (stereo unspecified), the T/C (dose: 12.5 mg/kg/injection, schedule: Q01DX009 (ip), vehicle: distilled water + Tween-80) is 101 % of control; the T/C (dose: 25.0 mg/kg/injection, schedule: Q01DX009 (ip), vehicle: distilled water + Tween-80) was 100 % of control; the T/C (dose: 50.0 mg/kg/injection, schedule: Q01DX009 (ip), vehicle: distilled water + Tween-80) is 99 % of control; the T/C (dose: 100.0 mg/kg/injection, schedule: Q01DX009 (ip), vehicle: distilled water + Tween-80) is 91 % of control; the T/C (dose: 200.0 mg/kg/injection, schedule: Q01DX009 (ip), vehicle: distilled water + Tween-80) is 98 % of control.
For the compound `COc1cc(NCCN(C(C)C)C(C)C)c2ncccc2c1`, the T/C (dose: 12.5 mg/kg/injection, schedule: Q01DX005 (ip), vehicle: saline) was 101 % of control; the T/C (dose: 25.0 mg/kg/injection, schedule: Q01DX005 (ip), vehicle: saline) was 93 % of control; the T/C (dose: 50.0 mg/kg/injection, schedule: Q01DX005 (ip), vehicle: saline) is 90 % of control and 92 % of control.
On to `Cc1cccc(Nc2nnc(Nc3cccc(C)n3)c3ccccc23)n1`, for which the T/C runs as follows: under setting [1], 95 % of control; under setting [2], 91 % of control; under setting [3], 92 % of control.
With `O=[N+]([O-])c1ccc2nc(CCl)[nH]c2c1`, the T/C is, setting by setting: under setting [7], 103 % of control; under setting [8], 116 % of control; under setting [9], 99 % of control and 111 % of control.
As to `CN(C)CCO/N=C1/CC[C@H]2[C@@H]3CC[C@H]4C[C@H](O)CC[C@]4(C)[C@H]3CC[C@]12C`, the T/C reads like this: (dose: 12.5 mg/kg/injection, schedule: Q01DX005 (ip), vehicle: Klucel (hydroxypropylcellulose) (HPC)) 104 % of control; (dose: 25.0 mg/kg/injection, schedule: Q01DX005 (ip), vehicle: Klucel (hydroxypropylcellulose) (HPC)) 95 % of control; under setting [13], 95 % of control.
For the compound `Clc1nc2ccccc2[nH]1`, the T/C was 101 % of control under setting [14], 99 % of control under setting [15], 95 % of control under setting [11] and 98 % of control under setting [12].
Consider `CCOc1ccc2c(=O)c(C(=O)O)c[nH]c2c1`, for which the T/C by setting is: under setting [15], 107 % of control; under setting [11], 107 % of control; under setting [12], 108 % of control.
`O=C1C(Cl)=C(Sc2nnc3c4ccccc4c4ccccc4c3n2)C(=O)c2ccccc21`: the T/C under setting [9] was 100 % of control, the T/C under setting [10] was 91 % of control and the T/C under setting [16] was 99 % of control.
Turning to `CS1(=O)=NC(=NC#N)c2ccccc21` (stereo unspecified), the T/C is, setting by setting: (dose: 50.0 mg/kg/injection, schedule: Q01DX009 (ip), vehicle: Klucel (hydroxypropylcellulose) (HPC)) 101 % of control; (dose: 100.0 mg/kg/injection, schedule: Q01DX009 (ip), vehicle: Klucel (hydroxypropylcellulose) (HPC)) 94 % of control.
For the compound `O=C(COc1ccc(Cl)cc1Cl)Nc1ccccc1C(=O)c1ccccc1`, the T/C reads like this: under setting [9], 101 % of control; under setting [10], 101 % of control; under setting [16], 94 % of control.
With `O=C1CN(Cc2ccc(Cl)cc2)CC(=O)N2Cc3ccccc3CN12`, the T/C was 102 % of control under setting [1], 104 % of control under setting [2] and 103 % of control under setting [3].
Turning to `c1ccc(N=C2N=c3ccccc3=C2c2c(Nc3ccccc3)[nH]c3ccccc23)cc1`, the T/C by setting is: under setting [1], 89 % of control; under setting [2], 90 % of control; under setting [3], 92 % of control.
For `Cc1ccc(C2CCC(C#N)=CN2C)cc1` (stereo unspecified), the T/C is 94 % of control (dose: 50.0 mg/kg/injection, schedule: Q01DX005 (ip), vehicle: Klucel + Tween-80); 98 % of control (dose: 100.0 mg/kg/injection, schedule: Q01DX005 (ip), vehicle: Klucel + Tween-80); 100 % of control (dose: 200.0 mg/kg/injection, schedule: Q01DX005 (ip), vehicle: Klucel + Tween-80).
As to `Clc1c(-c2ccccc2)oc2nc3ccccc3nc12`, the T/C under setting [4] is 116 % of control, the T/C under setting [5] is 110 % of control and the T/C under setting [6] was 111 % of control.
As for `Cc1ccc(N=Nc2c(-c3cccs3)nn(C(=S)S)c2C(F)(F)F)cc1`, the T/C by setting is: under setting [13], 92 % of control; (dose: 100.0 mg/kg/injection, schedule: Q01DX005 (ip), vehicle: Klucel (hydroxypropylcellulose) (HPC)) 92 % of control; (dose: 200.0 mg/kg/injection, schedule: Q01DX005 (ip), vehicle: Klucel (hydroxypropylcellulose) (HPC)) 87 % of control.
On to `Nc1ccc2cc(Cl)ccc2c1`, for which the T/C (dose: 16.5 mg/kg/injection, schedule: Q01DX009 (ip), vehicle: saline with Tween-80) was 90 % of control.
In the case of `[N-]=[N+]=Nc1ccccc1C(=O)NCCNC(=O)c1ccccc1N=[N+]=[N-]`, the T/C was 94 % of control (dose: 6.25 mg/kg/injection, schedule: Q01DX005 (ip), vehicle: saline with Tween-80); 91 % of control (dose: 12.5 mg/kg/injection, schedule: Q01DX005 (ip), vehicle: saline with Tween-80); 87 % of control under setting [3].
As to `CS(=O)(=O)c1nnnn1-c1ccccc1`, the T/C is 106 % of control (dose: 12.5 mg/kg/injection, schedule: Q04DX003 (ip), vehicle: saline with Tween-80); 106 % of control (dose: 25.0 mg/kg/injection, schedule: Q04DX003 (ip), vehicle: saline with Tween-80); 102 % of control and 112 % of control (dose: 50.0 mg/kg/injection, schedule: Q04DX003 (ip), vehicle: saline with Tween-80); 105 % of control (dose: 100.0 mg/kg/injection, schedule: Q04DX003 (ip), vehicle: saline with Tween-80).
Turning to `Nc1ncnc2c1ncn2C(C=O)OC(C=O)CO` (stereo unspecified), the T/C by setting is: (dose: 4.4 mg/kg/injection, schedule: Q04DX003 (ip), vehicle: saline) 118 % of control; (dose: 6.6 mg/kg/injection, schedule: Q04DX003 (ip), vehicle: saline) 118 % of control; (dose: 9.38 mg/kg/injection, schedule: Q04DX003 (ip), vehicle: saline) 177 % of control; (dose: 12.5 mg/kg/injection, schedule: Q01DX009 (ip), vehicle: saline) 150 % of control; under setting [14], 186 % of control; (dose: 37.5 mg/kg/injection, schedule: Q04DX003 (ip), vehicle: saline) 118 % of control. Also, the T/C (dose: 75.0 mg/kg/injection, schedule: Q04DX003 (ip), vehicle: saline) was 209 % of control.
As for `CCOC(=O)C(C)ONC(=O)Nc1ccc(Cl)cc1` (stereo unspecified), the T/C by setting is: under setting [9], 105 % of control; under setting [10], 103 % of control; under setting [16], 95 % of control.
As to `CC1CC2(CC(CN(C3CCCCC3)C3CCCCC3)OC2=O)C(=O)O1` (stereo unspecified), the T/C is, setting by setting: under setting [1], 104 % of control; under setting [2], 102 % of control; under setting [3], 96 % of control.
